In patent US11639360B2, “Oxazine compound and application thereof” (DALIAN UNIVERSITY OF TECHNOLOGY, priority 2018, dated 2023):

Assays:
[1] = tested on: MCF-7 (human breast cancer cell); assay: In vitro cell anti-cancer test under illumination (MTT); format: cell-based; conditions: MTT cell survival rate; for killing effect on the cells under illumination: MCF-7, 30 minutes incubation, red light 660 nanometers; for killing effect on the cells without illumination: MCF-7, no illumination
Protocol: MCF-7 (human breast cancer cell) was planted in 96-well culture plates at a density of 5000 cells per well and cultured in a cell incubator for 24 hours (37° C., 5% CO2). The compound F-1 synthesized in Embodiment 1 was used, and F-1-DMSO solution was added into DMEM containing 10% fetal calf serum to prepare solutions with different concentrations, and the prepared solutions were added to the 96-well culture plates and placed in a cell incubator to incubate for 30 minutes, and then irradiated for a certain period by red light with a wavelength of 660 nanometers. After irradiation, 96 empty plates were placed in a cell incubator and continuously incubated for 12 hours. Then, 100 μl of culture medium containing 5 mg/ml MTT was added to each well, and incubated in a cell incubator for 4 hours. The culture solutions in the well of the plates were removed, 100 µl of DMSO was added to each well to fully dissolve MTT oxidation products, and then the absorbance of each well at 570 nanometers and 630 nanometers were measured with a microplate reader, and a cell survival rate was calculated.
MCF-7 (human breast cancer cell) was planted in 96-well culture plates at a density of 5000 cells per well and cultured in a cell incubator for 24 hours (37° C., 5% CO2). The compound F-2 synthesized in Embodiment 6 was used, and F-2-DMSO solution was added into DMEM containing 10% fetal calf serum to prepare solutions with different concentrations, and the prepared solutions were added to the 96-well culture plates and placed in the cell incubator to incubate for 30 minutes, and then irradiated for a certain period by red light with a wavelength of 660 nanometers. After irradiation, 96 empty plates were placed in a cell incubator and continuously incubated for 12 hours. Then, 100 μl of culture medium containing 5 mg/ml MTT was added to each well, and incubated in a cell incubator for 4 hours. The culture solutions in the well of the plates were removed, 100 µl of DMSO was added to each well to fully dissolve MTT oxidation products, and then the absorbance of each well at 570 nanometers and 630 nanometers were measured with a microplate reader, and a cell survival rate was calculated.
MCF-7 (human breast cancer cell) was planted in 96-well culture plates at a density of 5000 cells per well and cultured in a cell incubator for 24 hours (37° C., 5% CO2). The compound F-3 synthesized in Embodiment 11 was used, and […] was added into DMEM containing 10% fetal calf serum to prepare solutions with different concentrations, and the prepared solutions were added to the 96-well culture plates and placed in the cell incubator to incubate for 30 minutes, and then irradiated for a certain period by red light with a wavelength of 660 nanometers. After irradiation, 96 empty plates were placed in a cell incubator and continuously incubated for 12 hours. Then, 100 μl of culture medium containing 5 mg/ml MTT was added to each well, and incubated in a cell incubator for 4 hours. The culture solutions in the well of the plates were removed, 100 μl of DMSO was added to each well to fully dissolve MTT oxidation products, and then the absorbance of each well at 570 nanometers and 630 nanometers were measured with a microplate reader, and a cell survival rate was calculated.

[2] = Spectral test experiment (UV-vis spectrophotometer and fluorescence spectrometer); format: physicochemical; conditions: in dichloromethane
Protocol: The compound F-1 synthesized in Embodiment 1 was used, and F-1-DMSO solution was added into dichloromethane and mixed evenly. Spectral properties of the compound F-1 were tested by a UV-vis spectrophotometer and a fluorescence spectrometer. The results are shown in FIG. 2, wherein the F-1 molecules have the maximum absorption and the maximum emission at 680 nanometers and 700 nanometers in the dichloromethane respectively.
The compound F-2 synthesized in Embodiment 6 was used, and F-2-DMSO solution was added into dichloromethane and mixed evenly. Spectral properties of the […] were tested by a UV-vis spectrophotometer and a fluorescence spectrometer. The results are shown in FIG. 6, wherein the F-2 molecules have the maximum absorption and the maximum emission at 686 nanometers and 712 nanometers in the dichloromethane are respectively.
The compound F-3 synthesized in Embodiment 11 was used, and F-3-DMSO solution was added into dichloromethane and mixed evenly. Spectral properties of the […] were tested by a UV-vis spectrophotometer and a fluorescence spectrometer. The results are shown in FIG. 10, wherein the F-3 molecules have the maximum absorption and the maximum emission at 697 nanometers and 740 nanometers in the dichloromethane.

[3] = Self-assembled nano drug-delivery system, scanning electron microscope; format: physicochemical; conditions: self-assembled in PBS or ultrapure water
Protocol: The compound F-1 synthesized in Embodiment 1 was used, and a proper amount of F-1-DMSO solution was added into a phosphate buffer (PBS) or ultrapure water as required. After shaking the mixture evenly, the compound F-1 could be self-assembled in the PBS or ultrapure water to form a nanoparticle system. It can be seen from FIG. 14 that the nanoparticles formed by the self-assembly of the compound F-1 in the nano-system are about 200 nanometers in size, regular in shape and uniform in size, and have excellent dispersion properties.

Row | Structure (SMILES) | killing effect on the cells under illumination [1] | killing effect on the cells without illumination [1] | maximum absorption [2] [nanometers] | maximum emission [2] [nanometers] | size of nanoparticles formed by self-assembly [3]
1 | CC/N=c1/cc2[te]c3c4c5c(cc3nc-2c2ccccc12)CCCN5CCC4 [Compound F-3] | obvious killing effect on the cells at low energy density of illumination | a certain killing effect on the cells without illumination | 697 | 740 | –
2 | CC/N=c1/cc2sc3c4c5c(cc3nc-2c2ccccc12)CCCN5CCC4 [Compound F-1] | obvious killing effect on the cells | very small killing effect on the cells without illumination, and has almost no toxicity | 680 | 700 | about 200 nanometers
3 | CC/N=c1/cc2[se]c3c4c5c(cc3nc-2c2ccccc12)CCCN5CCC4 [Compound F-2] | obvious killing effect on the cells at low energy density of illumination | very small killing effect on the cells without illumination, and has almost no toxicity | 686 | 712 | –
